Results from patent publication US20120252721A1 (priority 2011, published 2012).

Assays:
[1] = test system: HCV genotype 3a NS5A within the 1b-replicon; assay: Luciferase replicon assay, NS5A-intergenotypic stable cell line genotype 3a; type: cell-based; conditions: Hepatitis C virus, read-out: EC50 3a
Description: (§1) The nucleotide sequences of the NS5A region of genotype 2a (GenBank Accession # AB047639), genotype 3a (GenBank Accession #D17763), and genotype 4a (GenBank Accession# DQ418788) were synthesized by an outside vendor. The NS5A region of each of these genotypes included the first 11 amino acids of the protease recognition sequence of genotype 1b, as well as the last 10 amino acids of genotype 1b. The NS5A gene cassettes were excised with site specific restriction endonucleases and ligated into a ZS11-luciferase genotype 1b backbone (backbone contains the genotype 1b NS3 protease, NS4a, NS4b, and NS5b coding regions) with similarly cut restriction enzyme sites. Thus, the newly constructed plasmid contains a genotype 2a-, 3a- or 4a-specific NS5A gene within the 1b-replicon.
(§2) These new intergenotypic plasmids were used to establish stable cell lines. RNA was generated from the NS5A intergenotypic plasmids and used in conjunction with a lipofectin reagent to transfect a cured Huh7 cell line. Transfected cells were selected for with G418. After selection has occurred the stable cell lines were propagated, tested for luciferase activity, and RT-PCR with genotype specific primers (either 1a, 2a, 3a, or 4a). Stable cell lines containing the intergenotypic replicon were then fully sequenced and analyzed for proper expression of NS3, NS5A and NS5B proteins.
(§3) Drug titration analysis was performed using the luciferase replicon assay described herein.
(§4) The HCV luciferase replicon assay measures the ability of a test compound to inhibit HCV replication in cell culture after 3 days of treatment in a human hepatoma cell line (Huh-7) bearing an HCV replicon containing a luciferase-neomycin phosphotransferase fusion gene. The inhibition of HCV replication was measured by quantification of luciferase protein expression. Briefly, Huh-7 cells containing either the HCV genotype 1a H77 strain or genotype 1b Con1 strain subgenomic luciferase replicon (H1a-luc or Zluc, respectively) were grown in DMEM containing glucose, L-glutamine and sodium pyruvate, 10% fetal bovine serum (FBS), 100 IU/mL penicillin, 100 μg/mL streptomycin, 2 mM GlutaMAX, non-essential amino acids and 0.25 (H1a-luc) or 0.5 (Zluc) mg/mL G418. GlutaMAX was obtained from Invitrogen, Corp.; all other media reagents were obtained from Mediatech, Inc. For dose-response testing, the cells were seeded in 96-well plates at 1×10^4 (H1a-luc) or 7.5×10^3 (Zluc) cells/well in a volume of 50 μL, and incubated at 37° C./5% CO2. Three hours after plating, 50 μL of ten 5-fold serial dilutions of compound were added, and cell cultures were incubated at 37° C./5% CO2 for 72 hours. In all cases, Huh-7 cells lacking the HCV replicon served as negative control. To assess luciferase expression, the media/compound was removed from the plates and ONE-glo Luciferase assay reagent (Promega) was added to each well. The assay plates were shaken for 3 minutes at room temperature and luciferase activity for each well was measured with a 1 sec read time on the Victor^3V multilabel counter using a 700 nm cut-off filter (Perkin Elmer). EC50 values were calculated from dose response curves from the resulting best-fit equations determined by Microsoft Excel and XLfit 4.1 software.

[2] = test system: HCV genotype 1b Con1 strain subgenomic luciferase replicon (Zluc); assay: Luciferase replicon assay, genotype 1b; type: cell-based; conditions: Hepatitis C virus
Description: as §4

[3] = test system: HCV genotype 2a; assay: Genotype 2a assay (NS5A-intergenotypic luciferase replicon / genotype 2a infectious virus assay); type: cell-based; conditions: Hepatitis C virus, read-out: EC50 2a
Description: as §1, §2, §3
The genotype 2a infectious virus assay measures the ability of a test compound to inhibit HCV replication in cell culture after 5 days of treatment at the time of HCV genotype 2a virus infection of a permissive human hepatoma cell line (HPC cells). The inhibition of HCV replication was measured by quantification of HCV core protein expression by an enzyme-linked immunosorbent assay (ELISA). Briefly, HPC cells were grown in DMEM containing glucose, L-glutamine and sodium pyruvate, 10% FBS, 100 IU/mL penicillin, 100 μg/mL streptomycin, 2 mM GlutaMAX, and non-essential amino acids. GlutaMAX was obtained from Invitrogen, Corp.; all other media reagents were obtained from Mediatech, Inc. For dose-response testing, ninety-six-well plates were seeded with HPC cells at a density of 2.5×10^3 cells/well in a volume of 50 μL, and incubated at 37° C./5% CO2. Three hours after plating, 50 μL of ten 5-fold serial dilutions of compound and 100 μL of genotype 2a virus were added, and cell cultures were incubated at 37° C./5% CO2. In all cases, mock infected HPC cells served as negative control. At 16 hours post treatment and infection, the virus inoculum was removed by aspiration. The cultures were treated at the same final concentrations of drug diluted in media and incubated for 4 additional days at 37° C./5% CO2. Subsequently, the core ELISA was performed as follows. The plates were fixed for 90 seconds with acetone/methanol (1:1, v/v), washed three times with KPL wash solution (KPL, Inc.), blocked for 1 hr at room temperature with TNE buffer containing 10% FBS and then incubated for 2 hr at 37° C. with the anti-HCV core mouse monoclonal antibody (Thermo Scientific) diluted in the same buffer. After washing three times with KPL wash solution, the cells were incubated for 1 hr at 37° C. with an anti-mouse immunoglobulin G-peroxidase conjugate in TNE/10% FBS. After washing as described above, the reaction was developed with O-phenylenediamine (Invitrogen). The reaction was stopped after 30 min with 2 NH2SO4, and absorbance was read at 490 nm in a Victor^3V 1420 multilabel counter (Perkin Elmer) and EC50 concentrations were determined using Microsoft Excel and XLfit 4.1 software.
The HCV luciferase replicon assay measures the ability of a test compound to inhibit HCV replication in cell culture after 3 days of treatment in a human hepatoma cell line (Huh-7) bearing an HCV replicon containing a luciferase-neomycin phosphotransferase fusion gene. […]

[4] = test system: HCV genotype 1a H77 strain subgenomic luciferase replicon (H1a-luc); assay: Luciferase replicon assay, genotype 1a; type: cell-based; conditions: Hepatitis C virus, read-out: EC50 1a
Description: as §3, §4

[5] = test system: HCV genotype 4a NS5A within the 1b-replicon; assay: Luciferase replicon assay, NS5A-intergenotypic stable cell line genotype 4a; type: cell-based; conditions: Hepatitis C virus, read-out: EC50 4a
Description: as §1, §2, §3, §4

[6] = test system: H1a-luc or Zluc cells; assay: in vitro; type: cell-based, human; conditions: Table 1B, cellular viability
Description: (§5) For cytotoxicity evaluation, HPC cells were treated with compounds as described above in the absence of the genotype 2a virus and cellular viability was monitored using the Cell Titer 96 AQueous One Solution Cell Proliferation Assay (Promega). Plates were then read at 490 nm in a Victor^3V 1420 multilabel counter (Perkin Elmer) and CC50 concentrations were determined using Microsoft Excel and XLfit 4.1 software.
as §5, with “H1a-luc or Zluc” for “HPC”, “above” for “above in the absence of the genotype 2a virus”

[7] = in vitro; type: cell-based; conditions: human; GS4.1 cells, cellular viability
Description: For cytotoxicity evaluation, GS4.1 cells were treated with compounds as described above and cellular viability was monitored using the Cell Titer 96 AQeous One Solution Cell Proliferation Assay (Promega). CC50 values were determined from the % cytotoxicity versus concentration data with Tecan Magellan software as described above.

[8] = test system: HCV Con1 subgenomic replicon (GS4.1 cells); assay: HCV replicon assay (NS5A ELISA, 72 hrs); type: cell-based; conditions: Hepatitis C virus
Description: Huh-7 cells containing HCV Con1 subgenomic replicon (GS4.1 cells) were grown in Dulbecco's Modified Eagle Medium (DMEM) supplemented with 10% fetal bovine serum (FBS), 2 mM L-glutamine, 110 mg/L sodium pyruvate, 1× non-essential amino acids, 100 U/mL penicillin-streptomycin, and 0.5 mg/mL G418 (Invitrogen). For dose-response testing, the cells were seeded in 96-well plates at 7.5×10^3 cells/well in a volume of 50 μL, and incubated at 37° C./5% CO2. Three hours after plating, 50 μL often 2-fold serial dilutions of compounds (highest concentration, 75 μM) were added, and cell cultures were incubated at 37° C./5% CO2 in the presence of 0.5% DMSO. Alternatively, compounds were tested at a single concentration of 15 μM. In all cases, Huh-7 cells lacking the HCV replicon served as negative control. The cells were incubated in the presence of compounds for 72 hrs after which they were monitored for expression of the NS5A protein by enzyme-linked immunosorbent assay (ELISA). For this, the plates were then fixed for 1 min with acetone/methanol (1:1, v/v), washed twice with phosphate-buffered saline (PBS), 0.1% Tween 20, blocked for 1 hr at room temperature with TNE buffer containing 10% FBS and then incubated for 2 hr at 37° C. with the anti-NS5A mouse monoclonal antibody A-236 (ViroGen) diluted in the same buffer. After washing three times with PBS, 0.1% Tween 20, the cells were incubated 1 hr at 37° C. with anti-mouse immunoglobulin G-peroxidase conjugate in TNE, 10% FBS. After washing as described above, the reaction was developed with O-phenylenediamine (Zymed). The reaction was stopped after 30 min with 2 NH2SO4, and absorbance was read at 492 nm using Sunrise Tecan spectrophotometer. EC50 values were determined from the % inhibition versus concentration data using a sigmoidal non-linear regression analysis based on four parameters with Tecan Magellan software.

Compound | EC50 [1] [nM] | EC50 [2] [nM] | EC50 [3] [nM] | EC50 [4] [nM] | EC50 [5] [nM] | CC50 [6] [nM] | CC50 [7] [nM] | EC50 [8] [nM]
COC(=O)N[C@H](C(=O)N1CCCC1c1nc(-c2cc3sc(-c4cnc([C@@H]5CCCN5C(=O)[C@@H](NC(=O)OC)C(C)C)[nH]4)cc3s2)c[nH]1)C(C)C (stereo partly shown) [Compound A101] | 1 to 10 | < 0.1 | 1 to 10 | 10 to 100 | 1 to 10 | > 75000 | – | –
COC(=O)N[C@H](C(=O)N1CCC[C@H]1c1ncc(-c2ccc(-c3cc4sc(-c5cnc([C@@H]6CCCN6C(=O)[C@@H](NC(=O)OC)C(C)C)[nH]5)cc4s3)cc2)[nH]1)C(C)C [Compound A126, [(S)-1-((S)-2-{5-[4-(5-{2-[(S)-1-((S)-2-Methoxycarbonylamino-3-methyl-butyryl)-pyrrolidin-2-yl]-3H-imidazol-4-yl}-thieno[3,2-b]thiophen-2-yl)-phenyl]-1H-imidazol-2-yl}-pyrrolidine-1-carbonyl)-2-methyl-propyl]-carbamic acid methyl ester] | 1 to 10 | < 0.1 | – | < 0.1 | – | > 75000 | > 75000 | < 1
COC(=O)N[C@H](C(=O)N1CCC[C@H]1c1ncc(-c2ccc(-c3csc4c(-c5ccc6[nH]c([C@@H]7CCCN7C(=O)[C@@H](NC(=O)OC)C(C)C)nc6c5)csc34)cc2)[nH]1)C(C)C [Compound A171, [(S)-1-((S)-2-{4-[4-(6-{2-[(S)-1-((S)-2-methoxycarbonylamino-3-methyl-butyryl)-pyrrolidin-2-yl]-3H-benzoimidazol-5-yl}-thieno[3,2-b]thiophen-3-yl)-phenyl]-1H-imidazol-2-yl}-pyrrolidine-1-carbonyl)-2-methyl-propyl]-carbamic acid methyl ester] | 1 to 10 | < 0.1 | – | < 0.1 | – | > 75000 | – | –
COC(=O)N[C@H](C(=O)N1CCC[C@H]1c1ncc(-c2csc3c(-c4ccc5[nH]c([C@@H]6CCCN6C(=O)[C@@H](NC(=O)OC)C(C)C)nc5c4)csc23)[nH]1)C(C)C [Compound A173, ((S)-1-{(S)-2-[6-(6-{(S)-2-[1-((S)-2-methoxycarbonylamino-3-methyl-butyryl)-pyrrolidin-2-yl]-1H-imidazol-4-yl}-thieno[3,2-b]thiophen-3-yl)-1H-benzoimidazol-2-yl]-pyrrolidine-1-carbonyl}-2-methyl-propyl)-carbamic acid methyl ester] | 1 to 10 | < 0.1 | 1 to 10 | 10 to 100 | 1 to 10 | 10000 to 75000 | – | –
